In assay [1] the test system is striatal medium spiny neurons. Nature of the assay: Electrophysiology assay: whole-cell patch clamp, firing frequency. Format: cell-based, Wistar rat. The conditions noted are these: rat striatal cultures, current steps 10-200 pA. On the procedure: Selected compounds were tested in electrophysiology.
Striatal cultures were prepared as follows. Wistar rat embryos (E18) were sacrificed by cervical dislocation and brains removed into an ice-cold hanks balanced salt solution (HBSS) containing 10 mM HEPES, 1 mM sodium pyruvate and 0.035% sodium bicarbonate. The brain was hemisected, striata removed and placed in a papain solution (Worthington LK003150) for 10 min at 37° C. Tissue was then vigorously triturated until devoid of clumps, passed through a 70 μm mesh filter and centrifuged at 1000 rcf for 5 min. Supernatant was discarded and cells resuspended and centrifuged once more through an ovomucoid gradient before final resuspension in plating medium (containing EMEM 75%, FBS 10%, glutamate 12.5 μM, GlutaMax 0.5 mM, sodium pyruvate 10 mM, glucose 33.3 mM, HEPES […]). Cells were counted and spot plated onto 13 mm coverslips at a density of 200K. After 3 h, solution was topped up to 1 ml with growth medium (containing NBplus 98%, B27plus 2%, GlutaMax 0.5 mM). […]
Whole-cell patch clamp recordings were performed from visually identified medium spiny neurons. A step protocol was applied to inject current into the cell (10-200 pA, 10 pA steps, 500 ms) and resulting action potentials recorded. […] Frequency of firing was analysed off-line using Clampfit software.
Background: The patch-clamp technique gives a direct electrical read-out from membranes.

Another assay addresses T1, rat GPR55 (Rattus norvegicus, UniProt F1MAK4).
T1 construct: expressed in transfected cells; host or cells: HEK293 (human embryonic kidney) cells
T1 sequence (F1MAK4 1-319): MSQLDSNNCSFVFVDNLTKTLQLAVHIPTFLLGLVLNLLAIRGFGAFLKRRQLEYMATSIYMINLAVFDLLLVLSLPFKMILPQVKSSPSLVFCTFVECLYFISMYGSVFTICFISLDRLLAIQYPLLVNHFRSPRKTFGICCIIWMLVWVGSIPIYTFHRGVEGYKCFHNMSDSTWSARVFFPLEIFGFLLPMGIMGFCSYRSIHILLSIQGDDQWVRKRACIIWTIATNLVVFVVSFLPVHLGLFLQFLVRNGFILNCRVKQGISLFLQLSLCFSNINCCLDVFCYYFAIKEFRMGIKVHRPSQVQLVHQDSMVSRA
The assay is described as follows: Ca2+ mobilization assay (FLIPR, Calcium5 dye), rat GPR55. Format: cell-based. Particulars: HEK293 cells co-expressing PK-tagged rat GPR55 and EA-tagged beta-arrestin; intracellular calcium increase. The method, boiled down:
(§1)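 HEK293 cells co-expressing PK-tagged human or rat GPR55 and EA-tagged beta-arrestin were loaded with Calcium5 dye for 1 hour at 37° C in HEPES/HBSS buffer, pH 7.4, with probenecid and 0.1% BSA. Compound dilution series were added in duplicate and calcium rise followed by FLIPR fluorescence; response = maximum minus minimum.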

Another assay deals with T2, human GPR55 (Homo sapiens, UniProt Q9Y2T6).
T2 construct: expressed in transfected cells; host or cells: HEK293 (human embryonic kidney) cells
Nature of the assay: Ca2+ mobilization assay (FLIPR, Calcium5 dye), human GPR55. Format: cell-based. Particulars: HEK293 cells co-expressing PK-tagged human GPR55 and EA-tagged beta-arrestin; intracellular calcium increase. The method, boiled down: as §1
Background: A change in cytosolic calcium serves as a functional read-out for many receptors and channels.

SMILES strings stand for the structures.

T2 sequence (Q9Y2T6 whole entry): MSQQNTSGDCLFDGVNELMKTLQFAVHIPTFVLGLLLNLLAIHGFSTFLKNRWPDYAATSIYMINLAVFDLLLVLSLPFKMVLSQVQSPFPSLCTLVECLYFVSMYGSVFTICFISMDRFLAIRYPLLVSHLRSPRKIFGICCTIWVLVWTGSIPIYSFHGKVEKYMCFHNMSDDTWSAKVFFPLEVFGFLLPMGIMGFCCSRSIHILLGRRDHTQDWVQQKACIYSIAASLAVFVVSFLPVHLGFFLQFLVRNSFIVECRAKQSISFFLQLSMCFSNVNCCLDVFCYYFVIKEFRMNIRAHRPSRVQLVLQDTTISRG

On to `COc1cncc(-c2ccc(N[C@H](C)c3ccc(F)cc3)nc2)c1` [Example 6, (R)-N-(1-(4-fluorophenyl)ethyl)-5′-methoxy-[3,3′-bipyridin]-6-amine], for which the “firing frequency of medium spiny neurons relative to baseline” value in assay [1] (10 μM, FIG. 2) is listed as “significantly reduced the frequency”. Also, the EC50 was no more than 50 nM on rat GPR55 and no more than 200 nM on human GPR55.

With `C[C@@H](Nc1cnc(-c2cncc(CC(F)F)c2)cn1)c1ccc(F)cc1` [Example 31, (R)-5-(5-(2,2-difluoroethyl)pyridin-3-yl)-N-(1-(4-fluorophenyl)ethyl)pyrazin-2-amine], the “firing frequency of medium spiny neurons relative to baseline” value in assay [1] (1 μM, FIG. 3) is recorded as “significantly reduced the frequency”. Besides, the EC50 on rat GPR55 and on human GPR55 was no more than 50 nM in each case.

`CC(Nc1ncc(-c2ccc3oc(=O)n(C)c3c2)nn1)c1ccc(C#N)cc1` (centres unmarked) [Example 74, 4-(1-((6-(3-methyl-2-oxo-2,3-dihydrobenzo[d]oxazol-5-yl)-1,2,4-triazin-3-yl)amino)ethyl)benzonitrile]: the values for the EC50 at rat GPR55 and at human GPR55 were no more than 5000 nM and no more than 1000 nM, respectively.

For the compound `CNCc1cncc(-c2cnc(N[C@H](C)c3ccc(F)cc3)cn2)c1` [Example 37, (R)-N-(1-(4-fluorophenyl)ethyl)-5-(5-(methylamino)methylpyridin-3-yl)pyrazin-2-amine], the figures for the EC50 at rat GPR55 and on human GPR55 were no more than 50 nM and no more than 200 nM, respectively.

With `CCS(=O)(=O)c1cncc(-c2ccc(N[C@H](C)c3ccc(F)cc3)nc2)c1` [Example 15, (R)-5′-(ethylsulfonyl)-N-(1-(4-fluorophenyl)ethyl)-[3,3′-bipyridin]-6-amine], the EC50 on rat GPR55 was no more than 1000 nM; on human GPR55, no more than 200 nM.

Consider `C[C@@H](Nc1ncc(-c2cnc3ncn(C)c3c2)nn1)c1ccc(F)cc1` [Example 82, (R)-N-(1-(4-fluorophenyl)ethyl)-6-(1-methyl-1H-imidazo[4,5-b]pyridin-6-yl)-1,2,4-triazin-3-amine], for which the EC50 is no more than 5000 nM on rat GPR55 and no more than 1000 nM on human GPR55.

For the compound `CSCn1c(=O)oc2ccc(-c3cnc(N[C@H](C)c4ccc(F)cc4)nn3)cc21` [Example 70, (R)-5-(3-((1-(4-fluorophenyl)ethyl)amino)-1,2,4-triazin-6-yl)-3-((methylthio)methyl)benzo[d]oxazol-2(3H)-one], the EC50 on rat GPR55 and at human GPR55 was no more than 200 nM throughout.

On to `C[C@@H](Nc1cnc(-c2cnc3oc(=O)n(C)c3c2)cn1)c1ccc(F)cc1` [Example 26, (R)-6-(5-((1-(4-fluorophenyl)ethyl)amino)pyrazin-2-yl)-1-methyloxazolo[5,4-b]pyridin-2(1H)-one], for which the figures for the concentration giving a half-maximal response (EC50) at rat GPR55 and on human GPR55 were no more than 5000 nM and no more than 1000 nM, respectively.

Take `C[C@@H](Nc1ccc(-c2cncc(N(C)C)c2)cn1)c1ccc(F)cc1` [Example 12, (R)-N6′-(1-(4-fluorophenyl)ethyl)-N5,N5-dimethyl-[3,3′-bipyridine]-5,6′-diamine]: the EC50 on rat GPR55 is no more than 5000 nM; at human GPR55, no more than 1000 nM.

Turning to `C[C@@H](Nc1ncc(-c2ccc3oc(=O)n(C)c3c2)nn1)c1ccc(F)c(F)c1` [Example 76, (R)-5-(3-((1-(3,4-difluorophenyl)ethyl)amino)-1,2,4-triazin-6-yl)-3-methylbenzo[d]oxazol-2(3H)-one], the EC50 at rat GPR55 and on human GPR55 was no more than 1000 nM in each case.

As for `C[C@@H](Nc1cnc(-c2cncc(C(O)C(F)(F)F)c2)cn1)c1ccc(F)cc1` (single isomer, unassigned) [Example 32b], the half-maximal effective concentration (EC50) is no more than 1000 nM at rat GPR55 and no more than 50 nM on human GPR55.

Take `Cc1cncc(-c2ccc(N[C@H](C)c3ccc(F)cc3)nc2)c1C` [Example 11, (R)-N-(1-(4-fluorophenyl)ethyl)-4′,5′-dimethyl-[3,3′-bipyridin]-6-amine]: the EC50 on rat GPR55 and on human GPR55 was no more than 1000 nM throughout.

Take `CCc1cncc(-c2ccc(N[C@H](C)c3cccc(F)c3)nc2)c1` [Example 48, (R)-5′-ethyl-N-(1-(3-fluorophenyl)ethyl)-[3,3′-bipyridin]-6-amine]: the results for the EC50 on rat GPR55 and on human GPR55 were no more than 1000 nM and no more than 50 nM, respectively.

With `CC(Nc1cc(F)c(-c2cncc(S(C)(=O)=O)c2)cn1)c1ccc(F)cc1` (single isomer, unassigned) [Example 29a, 4-fluoro-N-(1-(4-fluorophenyl)ethyl)-5′-(methylsulfonyl)-[3,3′-bipyridin]-6-amine], the 50% effective concentration (EC50) at rat GPR55 was no more than 1000 nM; at human GPR55, no more than 50 nM.

As for `Cc1cncc(-c2ccc(N[C@H](C)c3ccc(F)c(F)c3)nc2)c1` [Example 2, (R)-N-(1-(3,4-difluorophenyl)ethyl)-5′-methyl-[3,3′-bipyridin]-6-amine], the results for the EC50 on rat GPR55 and at human GPR55 were no more than 5000 nM and no more than 50 nM, respectively.

Consider `C[C@@H](Nc1cnc(-c2cncc(S(C)(=O)=O)c2)cn1)c1ccc(F)cc1` [Example 18, (R)-N-(1-(4-fluorophenyl)ethyl)-5-(5-(methylsulfonyl)pyridin-3-yl)pyrazin-2-amine], for which the EC50 on rat GPR55 and at human GPR55 was no more than 50 nM in each case.

On to `C[C@@H](Nc1ccc(-c2cncc(C3CC3)c2)cn1)c1ccc(F)cc1` [Example 5, (R)-5′-cyclopropyl-N-(1-(4-fluorophenyl)ethyl)-[3,3′-bipyridin]-6-amine], for which the EC50 on rat GPR55 was no more than 1000 nM; at human GPR55 it was no more than 50 nM.

Regarding `CCc1cncc(-c2ccc(N[C@H](C)c3ccc(OC)cc3)nc2)c1` [Example 47, (R)-5′-ethyl-N-(1-(4-methoxyphenyl)ethyl)-[3,3′-bipyridin]-6-amine], the figures for the EC50 on rat GPR55 and on human GPR55 were no more than 5000 nM and no more than 1000 nM, respectively.

Take `CCc1cncc(-c2cnc(N[C@H](C)c3ccc(F)cc3)cn2)c1` [Example 17, (R)-5-(5-ethylpyridin-3-yl)-N-(1-(4-fluorophenyl)ethyl)pyrazin-2-amine]: the values for the EC50 on rat GPR55 and on human GPR55 were no more than 1000 nM and no more than 50 nM, respectively.

As to `C[C@@H](Nc1ccc(-c2ccc3oc(=O)[nH]c3c2)cn1)c1ccc(F)cc1` [Example 59, (R)-5-(6-((1-(4-fluorophenyl)ethyl)amino)pyridin-3-yl)benzo[d]oxazol-2(3H)-one], the EC50 on rat GPR55 is no more than 5000 nM; on human GPR55 it was no more than 1000 nM.

With `C[C@@H](Nc1ccc(-c2cncc([S+](C)[O-])c2)cn1)c1ccc(F)cc1` (stereo partly drawn) [Example 14, N-((R)-1-(4-fluorophenyl)ethyl)-5′-(methylsulfinyl)-[3,3′-bipyridin]-6-amine], the EC50 is no more than 5000 nM on rat GPR55 and no more than 200 nM at human GPR55.

The term EC50 denotes the concentration giving half of the maximal effect.

For the origin of these results see patent US20250282728A1, “NITROGEN COMPRISING HETEROCYCLIC DERIVATIVES FOR THE TREATMENT OF DISORDERS ASSOCIATED WITH GPR55 RECEPTOR” (Cerevance, Inc., priority 2022, published 2025).
